Measurements from publication PMC8789071 (2022).

Test system: human telomeric G-quadruplex (139-nt GQ strand) in DNA origami nanobowl (DNA, G4) TTACCTTTCCCCTCTGGCAAAACTATTCCGGTAAACTTAGGGTTAGGGTTAGGGTTAGGGTTATTTTTTTTATTTCTTCAGGCTTAACCATGCATTCCGATTGCAGCTTGCATCCATTGCATCGCTTGAATTGTCCAGC
Assay: optical tweezers mechanical unfolding, force populations
Settings: 100 mM KCl, 10 mM MgCl2; 20 mM Tris pH 7.8, 1 mM EDTA; free PDS 20-500 nM; bound populations outside and inside nanobowl rise

binding: yes
Structure (SMILES): NCCOc1cc(C(=O)Nc2cc(OCCN)c3ccccc3n2)nc(C(=O)Nc2cc(OCCN)c3ccccc3n2)c1
